Experiments:
Assay type in all cases: functional
[1] = Cytotoxicity against human HBC4 cells after 48 hrs by sulforhodamine B assay; conditions: HBC4, 48 h
[2] = Cytotoxicity against human BSY1 cells after 48 hrs by sulforhodamine B assay; conditions: BSY-1, 48 h
[3] = Cytotoxicity against human HBC5 cells after 48 hrs by sulforhodamine B assay; conditions: HBC5, 48 h
MCF7 = test: Cytotoxicity against human MCF7 cells after 48 hrs by sulforhodamine B assay; conditions: MCF7, 48 h
MDA-MB-231 = test: Cytotoxicity against human MDA-MB-231 cells after 48 hrs by sulforhodamine B assay; conditions: MDA-MB-231, 48 h
U-251 = test: Cytotoxicity against human U251 cells after 48 hrs by sulforhodamine B assay; conditions: U-251, 48 h
SF-268 = test: Cytotoxicity against human SF268 cells after 48 hrs by sulforhodamine B assay; conditions: SF-268, 48 h
SF-295 = test: Cytotoxicity against human SF295 cells after 48 hrs by sulforhodamine B assay; conditions: SF-295, 48 h
SF-539 = test: Cytotoxicity against human SF539 cells after 48 hrs by sulforhodamine B assay; conditions: SF-539, 48 h
SNB-75 = test: Cytotoxicity against human SNB75 cells after 48 hrs by sulforhodamine B assay; conditions: SNB-75, 48 h
SNB-78 = test: Cytotoxicity against human SNB78 cells after 48 hrs by sulforhodamine B assay; conditions: SNB-78, 48 h
HCC 2998 = test: Cytotoxicity against human HCC2998 cells after 48 hrs by sulforhodamine B assay; conditions: HCC 2998, 48 h
KM12 = test: Cytotoxicity against human KM12 cells after 48 hrs by sulforhodamine B assay; conditions: KM12, 48 h
HT-29 = test: Cytotoxicity against human HT-29 cells after 48 hrs by sulforhodamine B assay; conditions: HT-29, 48 h
HCT-15 = test: Cytotoxicity against human HCT15 cells after 48 hrs by sulforhodamine B assay; conditions: HCT-15, 48 h
HCT-116 = test: Cytotoxicity against human HCT116 cells after 48 hrs by sulforhodamine B assay; conditions: HCT-116, 48 h
NCI-H23 = test: Cytotoxicity against human NCI-H23 cells after 48 hrs by sulforhodamine B assay; conditions: NCI-H23, 48 h
NCI-H226 = test: Cytotoxicity against human NCI-H226 cells after 48 hrs by sulforhodamine B assay; conditions: NCI-H226, 48 h
NCI-H522 = test: Cytotoxicity against human NCI-H522 cells after 48 hrs by sulforhodamine B assay; conditions: NCI-H522, 48 h
NCI-H460 = test: Cytotoxicity against human NCI-H460 cells after 48 hrs by sulforhodamine B assay; conditions: NCI-H460, 48 h
A549 = test: Cytotoxicity against human A549 cells after 48 hrs by sulforhodamine B assay; conditions: A549, 48 h
DMS-273 = test: Cytotoxicity against human DMS273 cells after 48 hrs by sulforhodamine B assay; conditions: DMS-273, 48 h
DMS-114 = test: Cytotoxicity against human DMS114 cells after 48 hrs by sulforhodamine B assay; conditions: DMS-114, 48 h
LOX IMVI = test: Cytotoxicity against human LOXIMVI cells after 48 hrs by sulforhodamine B assay
OVCAR-3 = test: Cytotoxicity against human OVCAR3 cells after 48 hrs by sulforhodamine B assay; conditions: OVCAR-3, 48 h
OVCAR-4 = test: Cytotoxicity against human OVCAR4 cells after 48 hrs by sulforhodamine B assay; conditions: OVCAR-4, 48 h
OVCAR-5 = test: Cytotoxicity against human OVCAR5 cells after 48 hrs by sulforhodamine B assay; conditions: OVCAR-5, 48 h
OVCAR-8 = test: Cytotoxicity against human OVCAR8 cells after 48 hrs by sulforhodamine B assay; conditions: OVCAR-8, 48 h
SK-OV-3 = test: Cytotoxicity against human SKOV3 cells after 48 hrs by sulforhodamine B assay; conditions: SK-OV-3, 48 h
[4] = Cytotoxicity against human RXF631L cells after 48 hrs by sulforhodamine B assay; conditions: RXF 631, 48 h
ACHN = test: Cytotoxicity against human ACHN cells after 48 hrs by sulforhodamine B assay
St-4 = test: Cytotoxicity against human St-4 cells after 48 hrs by sulforhodamine B assay; conditions: St-4, 48 h
[5] = Cytotoxicity against human MKN1 cells after 48 hrs by sulforhodamine B assay; conditions: MKN-1, 48 h
MKN-7 = test: Cytotoxicity against human MKN7 cells after 48 hrs by sulforhodamine B assay; conditions: MKN-7, 48 h
MKN-28 = test: Cytotoxicity against human MKN28 cells after 48 hrs by sulforhodamine B assay; conditions: MKN-28, 48 h
MKN-45 = test: Cytotoxicity against human MKN45 cells after 48 hrs by sulforhodamine B assay; conditions: MKN-45, 48 h
MKN-74 = test: Cytotoxicity against human MKN74 cells after 48 hrs by sulforhodamine B assay; conditions: MKN-74, 48 h
DU-145 = test: Cytotoxicity against human DU145 cells after 48 hrs by sulforhodamine B assay; conditions: DU-145, 48 h
PC-3 = test: Cytotoxicity against human PC3 cells after 48 hrs by sulforhodamine B assay; conditions: PC-3, 48 h

SMILES | GI50 [1] | GI50 [2] | GI50 [3] | GI50 (MCF7) | GI50 (MDA-MB-231) | GI50 (U-251) | GI50 (SF-268) | GI50 (SF-295) | GI50 (SF-539) | GI50 (SNB-75) | GI50 (SNB-78) | GI50 (HCC 2998) | GI50 (KM12) | GI50 (HT-29) | GI50 (HCT-15) | GI50 (HCT-116) | GI50 (NCI-H23) | GI50 (NCI-H226) | GI50 (NCI-H522) | GI50 (NCI-H460) | further results
CCCCCCCCCCCC[C@@H](O)[C@H]1CC[C@H]([C@H](O)CCCCCCCCCCCCC2=C[C@H](CF)OC2=O)O1 | > 100 µM | 60 µM | 32 µM | 45 µM | 59 µM | > 100 µM | > 100 µM | 36 µM | > 100 µM | 63 µM | > 100 µM | > 100 µM | > 100 µM | 63 µM | > 100 µM | 16 µM | 12 µM | 51 µM | 15 µM | 79 µM | GI50 (A549): 76 µM; GI50 (DMS-273): 48 µM; GI50 (DMS-114): 6.9 µM; GI50 (LOX IMVI): > 100 µM; GI50 (OVCAR-3): > 100 µM; GI50 (OVCAR-4): > 100 µM; GI50 (OVCAR-5): > 100 µM; GI50 (OVCAR-8): 16 µM; GI50 (SK-OV-3): > 100 µM; GI50 [4]: > 100 µM; GI50 (ACHN): > 100 µM; GI50 (St-4): 37 µM; GI50 [5]: 58 µM; GI50 (MKN-7): 19 µM; GI50 (MKN-28): 7.8 µM; GI50 (MKN-45): 76 µM; GI50 (MKN-74): 40 µM; GI50 (DU-145): > 100 µM; GI50 (PC-3): 24 µM
CCCCCCCCCCCC[C@@H](O)[C@H]1CC[C@H]([C@H](O)CCCCCCCCCCCCC2=C[C@H](C(F)F)OC2=O)O1 | 32 µM | > 100 µM | 11 µM | 61 µM | > 100 µM | > 100 µM | > 100 µM | 44 µM | 79 µM | > 100 µM | > 100 µM | > 100 µM | > 100 µM | > 100 µM | 82 µM | > 100 µM | 75 µM | 63 µM | 24 µM | > 100 µM | GI50 (A549): > 100 µM; GI50 (DMS-273): 16 µM; GI50 (DMS-114): 24 µM; GI50 (LOX IMVI): 15 µM; GI50 (OVCAR-3): > 100 µM; GI50 (OVCAR-4): 87 µM; GI50 (OVCAR-5): > 100 µM; GI50 (OVCAR-8): 85 µM; GI50 (SK-OV-3): > 100 µM; GI50 [4]: > 100 µM; GI50 (ACHN): > 100 µM; GI50 (St-4): > 100 µM; GI50 [5]: 67 µM; GI50 (MKN-7): 19 µM; GI50 (MKN-28): 96 µM; GI50 (MKN-45): > 100 µM; GI50 (MKN-74): 57 µM; GI50 (DU-145): > 100 µM; GI50 (PC-3): 60 µM
CCCCCCCCCCCC[C@@H](O)[C@H]1CC[C@H]([C@H](O)CCCCCCCCCCCCC2=C[C@H](C(F)(F)F)OC2=O)O1 | > 100 µM | > 100 µM | > 100 µM | 80 µM | > 100 µM | > 100 µM | > 100 µM | 72 µM | > 100 µM | > 100 µM | > 100 µM | > 100 µM | > 100 µM | > 100 µM | > 100 µM | > 100 µM | > 100 µM | 88 µM | 53 µM | > 100 µM | GI50 (A549): > 100 µM; GI50 (DMS-273): > 100 µM; GI50 (DMS-114): 52 µM; GI50 (LOX IMVI): > 100 µM; GI50 (OVCAR-3): > 100 µM; GI50 (OVCAR-4): > 100 µM; GI50 (OVCAR-5): > 100 µM; GI50 (OVCAR-8): > 100 µM; GI50 (SK-OV-3): > 100 µM; GI50 [4]: > 100 µM; GI50 (ACHN): > 100 µM; GI50 (St-4): > 100 µM; GI50 [5]: > 100 µM; GI50 (MKN-7): 89 µM; GI50 (MKN-28): > 100 µM; GI50 (MKN-45): > 100 µM; GI50 (MKN-74): > 100 µM; GI50 (DU-145): > 100 µM; GI50 (PC-3): > 100 µM
CCCCCCCCCCCC[C@@H](O)[C@H]1CC[C@H]([C@H](O)CCCCCCCCCCCCC2=C[C@H](C)OC2=O)O1 [REL-SOLAMIN] | > 100 µM | > 100 µM | > 100 µM | 71 µM | > 100 µM | > 100 µM | > 100 µM | 40 µM | > 100 µM | > 100 µM | > 100 µM | > 100 µM | > 100 µM | > 100 µM | > 100 µM | > 100 µM | 73 µM | > 100 µM | 58 µM | > 100 µM | GI50 (A549): > 100 µM; GI50 (DMS-273): > 100 µM; GI50 (DMS-114): 4.3 µM; GI50 (LOX IMVI): 29 µM; GI50 (OVCAR-3): > 100 µM; GI50 (OVCAR-4): > 100 µM; GI50 (OVCAR-5): > 100 µM; GI50 (OVCAR-8): > 100 µM; GI50 (SK-OV-3): > 100 µM; GI50 [4]: > 100 µM; GI50 (ACHN): > 100 µM; GI50 (St-4): > 100 µM; GI50 [5]: > 100 µM; GI50 (MKN-7): 13 µM; GI50 (MKN-28): 14 µM; GI50 (MKN-45): > 100 µM; GI50 (MKN-74): > 100 µM; GI50 (DU-145): > 100 µM; GI50 (PC-3): > 100 µM
